In PubChem BioAssay (NCI):
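Cultured in 96-well plates, cells were exposed to test compound for 48 hours across five concentrations. GI50: concentration for 50% inhibition of growth. TGI denotes the concentration required for complete inhibition of growth.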

What was measured:
Assay in all cases: growth of human tumour cells (NCI), 48 h
OVCAR-4 ovarian = test system: OVCAR-4 ovarian
HL-60(TB) leukemia = test system: HL-60(TB) leukemia
U251 CNS = test system: U251 CNS
RXF 393 renal = test system: RXF 393 renal
SF-539 CNS = test system: SF-539 CNS
NCI-H23 lung = test system: NCI-H23 lung
SNB-19 CNS = test system: SNB-19 CNS
A549 NSCLC = test system: A549 NSCLC
KM12 colon = test system: KM12 colon
SF-268 CNS = test system: SF-268 CNS
HCT-116 colon = test system: HCT-116 colon
ACHN renal = test system: ACHN renal
CCRF-CEM leukemia = test system: CCRF-CEM leukemia
MALME-3M melanoma = test system: MALME-3M melanoma
SR leukemia = test system: SR leukemia
SK-MEL-2 melanoma = test system: SK-MEL-2 melanoma
MOLT-4 leukemia = test system: MOLT-4 leukemia
NCI-H226 lung = test system: NCI-H226 lung
HS 578T breast = test system: HS 578T breast
HT29 colon = test system: HT29 colon
SK-MEL-5 melanoma = test system: SK-MEL-5 melanoma
SW-620 colon = test system: SW-620 colon
SK-OV-3 ovarian = test system: SK-OV-3 ovarian
DU-145 prostate = test system: DU-145 prostate
M14 melanoma = test system: M14 melanoma
HCC-2998 colon = test system: HCC-2998 colon
UO-31 renal = test system: UO-31 renal
OVCAR-8 ovarian = test system: OVCAR-8 ovarian
786-0 renal = test system: 786-0 renal
TK-10 renal = test system: TK-10 renal
A498 renal = test system: A498 renal
NCI-H522 lung = test system: NCI-H522 lung
HOP-62 NSCLC = test system: HOP-62 NSCLC
BT-549 breast = test system: BT-549 breast
IGROV1 ovarian = test system: IGROV1 ovarian
UACC-62 melanoma = test system: UACC-62 melanoma
MDA-MB-435 = test system: MDA-MB-435
SNB-75 CNS = test system: SNB-75 CNS
MDA-MB-231 breast = test system: MDA-MB-231 breast
SF-295 CNS = test system: SF-295 CNS
MCF7 breast = test system: MCF7 breast
EKVX NSCLC = test system: EKVX NSCLC
CAKI-1 renal = test system: CAKI-1 renal
K-562 leukemia = test system: K-562 leukemia
T-47D breast = test system: T-47D breast
UACC-257 melanoma = test system: UACC-257 melanoma
RPMI-8226 leukemia = test system: RPMI-8226 leukemia
HOP-92 NSCLC = test system: HOP-92 NSCLC
OVCAR-3 ovarian = test system: OVCAR-3 ovarian
PC-3 prostate = test system: PC-3 prostate
SK-MEL-28 melanoma = test system: SK-MEL-28 melanoma
COLO 205 colon = test system: COLO 205 colon
HCT-15 colon = test system: HCT-15 colon
LOX IMVI melanoma = test system: LOX IMVI melanoma
NCI/ADR-RES ovarian = test system: NCI/ADR-RES ovarian
NCI-H460 lung = test system: NCI-H460 lung
SN12C renal = test system: SN12C renal

For `O=C(NNC1=NS(=O)(=O)c2ccccc2N1c1ccccc1)c1cnccn1`, the GI50 (OVCAR-4 ovarian) was > 100 µM, the TGI (OVCAR-4 ovarian) was > 100 µM and the GI50 (HL-60(TB) leukemia) was > 100 µM. The TGI (HL-60(TB) leukemia) was > 100 µM, the GI50 (U251 CNS) was > 100 µM and the TGI (U251 CNS) was > 100 µM. For the same compound, the GI50 (RXF 393 renal) was > 100 µM, the TGI (RXF 393 renal) was > 100 µM and the GI50 (SF-539 CNS) was > 100 µM. For the same compound, the TGI (SF-539 CNS) was > 100 µM, the GI50 (NCI-H23 lung) was > 100 µM and the TGI (NCI-H23 lung) was > 100 µM. For the same compound, the GI50 (SNB-19 CNS) was > 100 µM, the TGI (SNB-19 CNS) was > 100 µM and the GI50 (A549 NSCLC) was > 100 µM. For the same compound, the TGI (A549 NSCLC) was > 100 µM, the GI50 (KM12 colon) was > 100 µM and the TGI (KM12 colon) was > 100 µM. For the same compound, the GI50 (SF-268 CNS) was > 100 µM, the TGI (SF-268 CNS) was > 100 µM and the GI50 (HCT-116 colon) was > 100 µM. For the same compound, the TGI (HCT-116 colon) was > 100 µM, the GI50 (ACHN renal) was > 100 µM and the TGI (ACHN renal) was > 100 µM. The GI50 (CCRF-CEM leukemia) was > 100 µM, the TGI (CCRF-CEM leukemia) was > 100 µM and the GI50 (MALME-3M melanoma) was > 100 µM. The TGI (MALME-3M melanoma) was > 100 µM, the GI50 (SR leukemia) was > 100 µM and the TGI (SR leukemia) was > 100 µM. For the same compound, the GI50 (SK-MEL-2 melanoma) was > 100 µM, the TGI (SK-MEL-2 melanoma) was > 100 µM and the GI50 (MOLT-4 leukemia) was > 100 µM. For the same compound, the TGI (MOLT-4 leukemia) was > 100 µM, the GI50 (NCI-H226 lung) was > 100 µM and the TGI (NCI-H226 lung) was > 100 µM. For the same compound, the GI50 (HS 578T breast) was > 100 µM, the TGI (HS 578T breast) was > 100 µM and the GI50 (HT29 colon) was > 100 µM. The TGI (HT29 colon) was > 100 µM, the GI50 (SK-MEL-5 melanoma) was > 100 µM and the TGI (SK-MEL-5 melanoma) was > 100 µM. The GI50 (SW-620 colon) was > 100 µM, the TGI (SW-620 colon) was > 100 µM and the GI50 (SK-OV-3 ovarian) was > 100 µM. For the same compound, the TGI (SK-OV-3 ovarian) was > 100 µM, the GI50 (DU-145 prostate) was > 100 µM and the TGI (DU-145 prostate) was > 100 µM. The GI50 (M14 melanoma) was > 100 µM, the TGI (M14 melanoma) was > 100 µM and the GI50 (HCC-2998 colon) was > 100 µM. The TGI (HCC-2998 colon) was > 100 µM, the GI50 (UO-31 renal) was 67.4 µM and the TGI (UO-31 renal) was > 100 µM. The GI50 (OVCAR-8 ovarian) was > 100 µM, the TGI (OVCAR-8 ovarian) was > 100 µM and the GI50 (786-0 renal) was > 100 µM. For the same compound, the TGI (786-0 renal) was > 100 µM, the GI50 (TK-10 renal) was > 100 µM and the TGI (TK-10 renal) was > 100 µM. For the same compound, the GI50 (A498 renal) was > 100 µM, the TGI (A498 renal) was > 100 µM and the GI50 (NCI-H522 lung) was > 100 µM. For the same compound, the TGI (NCI-H522 lung) was > 100 µM, the GI50 (HOP-62 NSCLC) was > 100 µM and the TGI (HOP-62 NSCLC) was > 100 µM. For the same compound, the GI50 (BT-549 breast) was > 100 µM, the TGI (BT-549 breast) was > 100 µM and the GI50 (IGROV1 ovarian) was > 100 µM. The TGI (IGROV1 ovarian) was > 100 µM, the GI50 (UACC-62 melanoma) was > 100 µM and the TGI (UACC-62 melanoma) was > 100 µM. The GI50 (MDA-MB-435) was > 100 µM, the TGI (MDA-MB-435) was > 100 µM and the GI50 (SNB-75 CNS) was > 100 µM. For the same compound, the TGI (SNB-75 CNS) was > 100 µM, the GI50 (MDA-MB-231 breast) was > 100 µM and the TGI (MDA-MB-231 breast) was > 100 µM. The GI50 (SF-295 CNS) was > 100 µM, the TGI (SF-295 CNS) was > 100 µM and the GI50 (MCF7 breast) was > 100 µM. The TGI (MCF7 breast) was > 100 µM, the GI50 (EKVX NSCLC) was > 100 µM and the TGI (EKVX NSCLC) was > 100 µM. For the same compound, the GI50 (CAKI-1 renal) was > 100 µM, the TGI (CAKI-1 renal) was > 100 µM and the GI50 (K-562 leukemia) was > 100 µM. For the same compound, the TGI (K-562 leukemia) was > 100 µM, the GI50 (T-47D breast) was > 100 µM and the TGI (T-47D breast) was > 100 µM. For the same compound, the GI50 (UACC-257 melanoma) was > 100 µM, the TGI (UACC-257 melanoma) was > 100 µM and the GI50 (RPMI-8226 leukemia) was > 100 µM. For the same compound, the TGI (RPMI-8226 leukemia) was > 100 µM, the GI50 (HOP-92 NSCLC) was > 100 µM and the TGI (HOP-92 NSCLC) was > 100 µM. The GI50 (OVCAR-3 ovarian) was > 100 µM, the TGI (OVCAR-3 ovarian) was > 100 µM and the GI50 (PC-3 prostate) was > 100 µM. For the same compound, the TGI (PC-3 prostate) was > 100 µM, the GI50 (SK-MEL-28 melanoma) was > 100 µM and the TGI (SK-MEL-28 melanoma) was > 100 µM. The GI50 (COLO 205 colon) was > 100 µM, the TGI (COLO 205 colon) was > 100 µM and the GI50 (HCT-15 colon) was 52.2 µM. For the same compound, the TGI (HCT-15 colon) was > 100 µM, the GI50 (LOX IMVI melanoma) was > 100 µM and the TGI (LOX IMVI melanoma) was > 100 µM. The GI50 (NCI/ADR-RES ovarian) was > 100 µM, the TGI (NCI/ADR-RES ovarian) was > 100 µM and the GI50 (NCI-H460 lung) was > 100 µM. The TGI (NCI-H460 lung) was > 100 µM, the GI50 (SN12C renal) was > 100 µM and the TGI (SN12C renal) was > 100 µM.
